Measurements taken from patent publication US9839614B2, “Nanoparticle and polymer formulations for thyroid hormone analogs, antagonists, and formulations and uses thereof” (NANOPHARMACEUTICALS LLC, priority 2009, dated 2017).
“And” between values parts separate entries of the source, which are not always exact repeats. Identical values can stand only once.

Tests used:
[1] = system: chick chorioallantoic membrane (CAM) blood vessel branching; assay: Chorioallantoic membrane (CAM) model of angiogenesis; format: in vivo; conditions: for ANGIOGENESIS INDEX: n = 8 per group; for effect on angiogenesis, representative illustrations (FIG. 23): in vivo
Experimental: In vivo neovascularization was examined by methods described previously. 9-12 Ten-day-old chick embryos were purchased from SPAFAS (Preston, Conn.) and incubated at 37° C. with 55% relative humidity. A hypodermic needle was used to make a small hole in the shell concealing the air sac, and a second hole was made on the broad side of the egg, directly over an avascular portion of the embryonic membrane that was identified by candling. A false air sac was created beneath the second hole by the application of negative pressure at the first hole, causing the CAM to separate from the shell. A window approximately 1.0 cm^2 was cut in the shell over the dropped CAM with a small-crafts grinding wheel (Dremel, division of Emerson Electric Co.), allowing direct access to the underlying CAM. […] Sterile disks of No. 1 filter paper (Whatman International) were pretreated with 3 mg/mL cortisone acetate and 1 mmol/L PTU and air dried under sterile conditions. Thyroid hormone, hormone analogs, FGF2 or control solvents, and inhibitors were then applied to the disks and the disks allowed to dry. The disks were then suspended in PBS and placed on growing CAMs. […] At 24 hours, the MAPK cascade inhibitor PD 98059 was also added to CAMs topically by means of the filter disks.
After incubation at 37° C. with 55% relative humidity for 3 days, the CAM tissue directly beneath each filter disk was resected from control and treated CAM samples. Tissues were washed 3× with PBS, placed in 35-mm Petri dishes (Nalge Nunc), and examined under an SV6 stereomicroscope (Zeiss) at X50 magnification. Digital images of CAM sections exposed to filters were collected using a 3-charge-coupled device color video camera system (Toshiba) and analyzed with Image-Pro software (Media Cybernetics). The number of vessel branch points contained in a circular region equal to the area of each filter disk were counted. One image was counted in each CAM preparation, and findings from 8 to 10 CAM preparations were analyzed for each treatment condition (thyroid hormone or analogs, FGF2, FGF2 antibody, PD 98059). In addition, each experiment was performed 3 times. The resulting angiogenesis index is the mean±SEM of new branch points.

[2] = system: matrigel plug angiogenesis; assay: Mouse matrigel model of angiogenesis (plug hemoglobin); format: in vivo, mice (C57BL/6NCr)
Experimental: Normal male mice (C57BL/6NCr) 6-8 weeks of age and weighing ˜20 g were purchased from Taconic farm. Animals were housed 4 per cage, in controlled conditions of temperature (20-24° C.); humidity (60-70%) and 12 hrs. light/dark cycle provided with food and water ad libitum. […] Aliquots of matrigel were placed into cold polypropylene tubes to prevent the matrigel from solidifying and the angiogenesis promoter added to matrigel with or without agonist. Mice were treated daily. Matrigel was subcutaneously injected as triple injection per animal at 100 μL/animal. At day 14 post plug implant all animals were killed in CO2 chamber and matrigel plugs were collected. Plug hemoglobin content was analyzed from three implants/mice (n=6 per group) to measure angiogenesis.
The matrigel plugs dissected from the mice were carefully stripped of any remaining peritoneum. The plugs were placed into 0.5 mL tube of ddH2O and homogenized for 5-10 min. […] Absorbance was read with a Microplate Manager ELISA reader at 540 nm. […] Hemoglobin concentration is a reflection of the number of blood vessels in the plugs.

[3] = system: ECV304 endothelial cells; assay: FGF2 release from ECV304 endothelial cells (ELISA); format: cell-based; conditions: T3 0.01 μmol/L, 3 days
Experimental: ECV304 endothelial cells were cultured in M199 medium supplemented with 10% fetal bovine serum. […] After 72 hours, the supernatants were harvested and assays for FGF performed without dilution using a commercial ELISA system (R&D Systems) (See Davis et al., Circ Res 94:1500-1506 (2004)).

[4] = FGF (1.25 μg/ml) + Tetrac or analog at 10 μg/plug
[5] = FGF (1.25 μg/ml) + Tetrac or analog at 10 μg/plug, n = 8
[6] = 10 μg/matrigel plug, day 14, n = 6-7
[7] = FGF 100 ng + Tetrac or analog 10 μg/plug
[8] = FGF 100 ng + Tetrac or analog 10 μg/plug, n = 7-14
[9] = T4 + antagonist, each 10 μg/matrigel plug

CC(C)[Si](OC(=O)C(Cc1cc(I)c(Oc2cc(I)c(O)c(I)c2)c(I)c1)NC(=O)OC(C)(C)C)(C(C)C)C(C)C (centres unmarked) [T4 analog 13, Triisopropylsilyl-2-(tert-butoxycarbonylamino)-3-(4-(4-hydroxy-3,5-diiodophenoxy)-3,5-diiodophenyl)propanoate]
Mean Branch points ([1]; 1 μM, mean ± SEM, n = 8): 76 ± 7 | Mean % Inhibition [1, 4]: 44 ± 13% | Mean Branch points [1, 5]: 105 ± 7 | change in vivo at 1 µM ([1]; Gallus gallus, topical, 1 μM, read-out: Mean % of stimulation (comparing to PBS)): 4.1 ± 6.5% | Mean stimulation of angiogenesis (%) ([2]; 10 μg/matrigel plug): 0 ± 17% | Hemoglobin (mg/mL) ± SEM [2, 6]: 0.3 ± 0.1 mg/mL

O=C(O)CCc1cc(I)c(Oc2ccc(O)cc2)c(I)c1 [DITPA, 3,5-diiodothyropropionic acid]
ANGIOGENESIS INDEX ([1]; 0.01 uM): 133.0 ± 11.6 | ANGIOGENESIS INDEX ([1]; 0.1 uM): 167.3 ± 12.7 | ANGIOGENESIS INDEX ([1]; 0.2 mM): 117.9 ± 5.6

FGF2: human recombinant FGF2, standard proangiogenic agent
ANGIOGENESIS INDEX ([1]; 1 uM): 155 ± 9 | Branch pts ± SEM ([1]; 1.25 μg/ml): 137.9 ± 7.5 | Mean % of stimulation (comparing to PBS) ([1]; FGF 1.25 μg/mL): 78.1 ± 7.5% | Mean Branch points ([1]; FGF 1.25 μg/mL): 130 ± 11 | increase in angiogenesis / branch formation ([1]; FGF2 (1 μg/mL)): 2.2 fold and 2 fold | Mean Branch points ([1]; FGF (1.25 μg/ml) alone): 130 ± 11 | Hemoglobin (mg/mL) ± SEM ([2]; FGF 100 ng alone): 2.4 ± 0.4 mg/mL

CC(C)(C)OC(=O)NC(Cc1cc(I)c(Oc2cc(I)c(OCC3CO3)c(I)c2)c(I)c1)C(=O)OCC1CO1 (centres unmarked) [T4 analog 14, Oxiran-2-ylmethyl-2-(tert-butoxycarbonylamino)-3-(4-(3,5-diiodo-4-(oxiran-2-ylmethoxy)phenoxy)-3,5-diiodophenyl)propanoate]
Mean % of stimulation (comparing to PBS) ([1]; 1 μM): 56.2 ± 7.5% | Mean Branch points ([1]; 1 μM, mean ± SEM, n = 8): 114 ± 11 | Mean stimulation of angiogenesis (%) ([2]; 10 μg/matrigel plug): 0 ± 17% | Hemoglobin (mg/mL) ± SEM [2, 6]: 0.3 ± 0.1 mg/mL

CCNC(Cc1cc(I)c(Oc2cc(I)c(O)c(I)c2)c(I)c1)C(=O)O (centres unmarked) [T4 analog 11, 2-(Ethylamino)-3-[4-(4-hydroxy-3,5-diiodophenoxy)-3,5-diiodophenyl]propanoic acid]
effect on angiogenesis, representative illustrations (FIG. 23) [1]: proangiogenesis effects

O=C(Cc1cc(I)c(Oc2cc(I)c(OCC3CO3)c(I)c2)c(I)c1)OCC1CO1 (centres unmarked) [Tetrac analog 8, Oxiran-2-ylmethyl-2-(4-(3,5-diiodo-4-(oxiran-2-ylmethoxy)phenoxy)-3,5-diiodophenyl)acetate]
melting point: 116 °C

Cc1cc(OCC(=O)O)cc(C)c1Cc1ccc(O)c(C(C)C)c1 [GC-1, 3,5-dimethyl-4-(4′-hydroxy-3′-isopropylbenzyl)-phenoxy acetic acid]
ANGIOGENESIS INDEX ([1]; 0.01 uM): 169.6 ± 11.6 | ANGIOGENESIS INDEX ([1]; 0.1 uM): 152.7 ± 9.0

CNC(Cc1cc(I)c(Oc2cc(I)c(O)c(I)c2)c(I)c1)C(=O)[O-].O.O.[K+] (centres unmarked) [T4 analog 10, Potassium 3-[4-(4-hydroxy-3,5-diiodophenoxy)-3,5-diiodophenyl]-2-(methylamino)propanoate dihydrate]
Mean % of stimulation (comparing to PBS) ([1]; 0.1 μM): 43.8 ± 6.5% | Mean Branch points ([1]; 0.1 μM, mean ± SEM, n = 8): 105 ± 7 | Hemoglobin (mg/mL) ± SEM [2, 6]: 0.8 ± 0.2 mg/mL | Mean stimulation of angiogenesis (%) ([2]; 10 μg/matrigel plug, dihydrate): 87% and 87 ± 33%

N[C@@H](Cc1cc(I)c(Oc2ccc(O)c(I)c2)c(I)c1)C(=O)O [Compound T3, 3,5,3′-triiodo-L-thyronine]
generation of new blood vessels from existing vessels promoted ([1]; 10^−7-10^−9M): two-to three-fold | FGF2 (pg/mL/10^6 cells) [3]: 98.8 ± 0.5 pg/mL/10^6 cells

CC(C)[Si](OC(=O)Cc1cc(I)c(Oc2cc(I)c(OCC3CO3)c(I)c2)c(I)c1)(C(C)C)C(C)C (centres unmarked)
melting point: 120 °C

CCNC(Cc1cc(I)c(Oc2cc(I)c(O)c(I)c2)c(I)c1)C(=O)O (centres unmarked) [PRIAB12]
Branch pts ± SEM ([1]; 0.1 μM): 121.7 ± 13.6

CC(C)(C)OC(=O)NC(Cc1cc(I)c(Oc2cc(I)c(OCC3CO3)c(I)c2)c(I)c1)C(=O)OCC1CO1 (centres unmarked) (hydrate or solvate) [T4 analog 14, Oxiran-2-ylmethyl-2-(tert-butoxycarbonylamino)-3-(4-(3,5-diiodo-4-(oxiran-2-ylmethoxy)phenoxy)-3,5-diiodophenyl)propanoate]
melting point: 105 °C

O=C(O)C(Cc1cc(I)c(Oc2cc(I)c(O)c(I)c2)c(I)c1)NC(c1ccccc1)(c1ccccc1)c1ccccc1 (centres unmarked) [PRIAB2]
Branch pts ± SEM ([1]; 0.1 μM): 136.0 ± 18.1

CC(C)(C)OC(=O)Cc1cc(I)c(Oc2cc(I)c(O)c(I)c2)c(I)c1 [Tetrac analog 3, tert-Butyl-2-(4-(4-hydroxy-3,5-diiodophenoxy)-3,5-diiodophenyl)acetate]
Mean inhibition of angiogenesis (%) [2, 7]: 95 ± 14%

CC(C)(C)OC(=O)NC(Cc1cc(I)c(Oc2cc(I)c(O)c(I)c2)c(I)c1)C(=O)O (centres unmarked) [T4 analog 7, 2-[(Tert-butoxycarbonyl)amino]-3-[4-(4-hydroxy-3,5-diiodophenoxy)-3,5-diiodophenyl]propanoic acid]
Branch pts ± SEM ([1]; 0.1 μM, before conjugation): 173 ± 9.9

O=C(Cc1cc(I)c(Oc2cc(I)c(O)c(I)c2)c(I)c1)NC1CCCCC1 [Tetrac analog 4, N-cyclohexyl-2-(4-(4-hydroxy-3,5-diiodophenoxy)-3,5-diiodophenyl)acetamide]
Mean % Inhibition [1, 4]: 15 ± 8% | Mean Branch points [1, 5]: 121 ± 4 | Mean inhibition of angiogenesis (%) [2, 7]: 104 ± 12% | Hemoglobin (mg/mL) ± SEM [2, 8]: 0.2 ± 0.1 mg/mL

CC(C)[Si](OC(=O)C(Cc1cc(I)c(Oc2cc(I)c(OCC3CO3)c(I)c2)c(I)c1)NC(=O)OC(C)(C)C)(C(C)C)C(C)C (centres unmarked) (hydrate or solvate)
melting point: 109 °C

CNC(Cc1cc(I)c(Oc2cc(I)c(O)c(I)c2)c(I)c1)C(=O)O (centres unmarked) [PRIAB6]
Branch pts ± SEM ([1]; 0.1 μM): 136.2 ± 12.4

O=C(Cc1cc(I)c(Oc2cc(I)c(OCCCl)c(I)c2)c(I)c1)NC1CCCCC1 [Tetrac analog 15, 2-(4-(4-(2-chloroethoxy)-3,5-diiodophenoxy)-3,5-diiodophenyl)-N-cyclohexylacetamide]
melting point: 263 °C

CC(C)[Si](OC(=O)Cc1cc(I)c(Oc2cc(I)c(O)c(I)c2)c(I)c1)(C(C)C)C(C)C [Tetrac analog 5, Triisopropylsilyl-2-(4-(4-hydroxy-3,5-diiodophenoxy)-3,5-diiodophenyl)acetate]
Mean % Inhibition [1, 4]: 75 ± 19% | Mean Branch points [1, 5]: 87 ± 11 | Mean inhibition of angiogenesis (%) [2, 7]: 104 ± 14% | Hemoglobin (mg/mL) ± SEM [2, 8]: 0.2 ± 0.1 mg/mL | melting point: 146 °C

CCNC(Cc1cc(I)c(Oc2cc(I)c(O)c(I)c2)c(I)c1)C(=O)OCC (centres unmarked) [T4 analog 12, Ethyl-2-(ethylamino)-3-[4-(4-hydroxy-3,5-diiodophenoxy)-3,5-diiodophenyl]propanoate]
Mean Branch points ([1]; FGF (1.25 μg/ml) + 12 (0.1 μM)): 46 ± 2 | Mean % of stimulation (comparing to PBS) ([1]; FGF (1.25 μg/ml) + 12 (0.1 μM), (inhibition)): −37.9 ± 4 (inhibition) % | effect on angiogenesis, representative illustrations (FIG. 23) [1]: anti-angiogenic | Hemoglobin (mg/mL) ± SEM [2, 9]: 0.4 ± 0.1 mg/mL | Mean inhibition of angiogenesis (%) [2, 9]: 89 ± 11%

O=C(Cc1cc(I)c(Oc2cc(I)c(OCC3CO3)c(I)c2)c(I)c1)NC1CCCCC1 (centres unmarked) [Tetrac analog 6, N-cyclohexyl-2-(4-(3,5-diiodo-4-(oxiran-2-ylmethoxy)phenoxy)-3,5-diiodophenyl)acetamide]
Mean inhibition of angiogenesis (%) [2, 7]: 80 ± 16% | Hemoglobin (mg/mL) ± SEM [2, 8]: 0.7 ± 0.1 mg/mL | melting point: 242 °C
